# Laboratory results from patent publication US20260098008A1, “COVALENT, CHEMOGENETIC ACTIVATORS FOR K2P POTASSIUM CHANNELS AND USES THEREOF” (THE REGENTS OF THE UNIVERSITY OF CALIFORNIA, priority 2022, published 2026).
# Changes are numbered by the printed parent chain.
# Experiments:
# Assay type in all cases: cell-based
# [1] = biological target: T1, TREK-1^CG* (K2P2.1 (TREK-1) S131C) (Mus musculus, UniProt P97438, S146C); assay: TEVC in Xenopus oocytes; settings: for Reversibility of activation on washout: 20 μM, Xenopus oocytes
# T1 construct: expressed in transfected cells; host or cells: Xenopus laevis oocytes injected with mRNA
# T1 sequence (P97438 1-411 isoform P97438-2 S131C): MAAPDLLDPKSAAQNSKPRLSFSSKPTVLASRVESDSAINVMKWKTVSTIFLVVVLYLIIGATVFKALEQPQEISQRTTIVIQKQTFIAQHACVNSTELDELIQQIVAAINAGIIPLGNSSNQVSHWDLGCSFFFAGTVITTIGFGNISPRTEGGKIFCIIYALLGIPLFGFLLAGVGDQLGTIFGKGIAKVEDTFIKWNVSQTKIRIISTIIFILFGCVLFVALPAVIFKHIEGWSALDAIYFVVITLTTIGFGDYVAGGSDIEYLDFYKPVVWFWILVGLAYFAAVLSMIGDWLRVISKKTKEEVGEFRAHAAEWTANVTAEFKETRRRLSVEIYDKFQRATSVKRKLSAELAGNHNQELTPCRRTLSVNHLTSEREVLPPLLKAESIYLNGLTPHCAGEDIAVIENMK
# Text: (§1) Mouse K2P2.1 (TREK-1) (Genbank accession number: NP_034737.2), mouse K2P10.1 (TREK-2) (NM_001316665.1), mouse K2P4.1 (TRAAK) (NM_008431.3), human K2P4.1 (TRAAK) (NM_033310.2) and mouse K2P18.1(TRESK) (NM_207261.3) were used for this study. Point mutations were introduced by site-directed mutagenesis using custom primers and confirmed by sequencing before use. For studies using Xenopus oocytes, K2P channels were subcloned into a previously reported pGEMHE/pMO vector (46). For expression in HEK293 cells, mouse K2P2.1 (TREK-1) and mutants were expressed from a previously described pIRES2-EGFP vector in HEK293 cells (46,47). K2P2.1 (TREK-1) tandems were constructed by connecting the open reading frames for the individual subunits with a linker encoding the […] (SEQ ID NO: 19) sequence. Tandems used for HEK293 cells included an N-terminal HA tag ([…] (SEQ ID NO: 20)) on the first subunit.
# (§2) Xenopus laevis oocytes were harvested according to UCSF IACUC Protocol AN129690 and digested using collagenase (Worthington Biochemical Corporation, #LS004183, 0.8-1.0 mg/mL) in Ca^21-free ND96 (96 mM NaCl, 2 mM KCl, 3.8 mM MgCl2, 5 mM HEPES pH 7.4) immediately post-harvest, as previously reported (31,33). Oocytes were maintained at 18° C. in ND96 (96 mM NaCl, 2 mM KCl, 1.8 mM CaCl2, 2 mM MgCl2, 5 mM HEPES pH 7.4) supplemented with antibiotics (100 units mL^−1 penicillin, 100 μg mL^−1 streptomycin, 50 μg mL^−1 gentimycin) and used for experiments within one week of harvest.
# (§3) Defolliculated stage V-VI oocytes were microinjected with 0.5-36 ng mRNA and currents were recorded within 16-48 h hours of injection.
# (§4) For recordings, oocytes were impaled with borosilicate recording microelectrodes (0.4-2.0 MΩ resistance) backfilled with 3 M KCl and were subjected to constant perfusion of ND96 at a rate of 3 ml min^−1. Recording solutions containing K2P activators were prepared immediately prior to use from DMSO stocks (20-100 mM), with final DMSO concentrations of 0.1%. Currents were evoked from a −80 mV holding potential followed by a 300 ms ramp from −150 mV to +50 mV. Data were recorded using a GeneClamp 500B amplifier (MDS Analytical Technologies) controlled by pCLAMP8 software (Molecular Devices), and digitized at 1 kHz using Digidata 1332 Å digitizer (MDS Analytical Technologies). For each recording, control solution (ND96) was perfused over a single oocyte until current was stable before switching to solutions containing the test compounds at various concentrations. Representative traces and dose response plots were generated in GraphPad Prism 9.
# [2] = test system: K2P4.1 (TRAAK)^CG*; assay: TEVC in Xenopus oocytes; settings: 20 μM
# Text: as §1, §2, §3, §4
# [3] = biological target: T2, Q258K K2P4.1 (TRAAK)^CG* (Homo sapiens, UniProt Q9NYG8, Q232K/S92C); assay: TEVC in Xenopus oocytes; settings: 20 μM; after 2 min
# T2 construct: expressed in transfected cells; host or cells: Xenopus laevis oocytes injected with mRNA
# T2 sequence (Q9NYG8 1-393 S92C/Q232K): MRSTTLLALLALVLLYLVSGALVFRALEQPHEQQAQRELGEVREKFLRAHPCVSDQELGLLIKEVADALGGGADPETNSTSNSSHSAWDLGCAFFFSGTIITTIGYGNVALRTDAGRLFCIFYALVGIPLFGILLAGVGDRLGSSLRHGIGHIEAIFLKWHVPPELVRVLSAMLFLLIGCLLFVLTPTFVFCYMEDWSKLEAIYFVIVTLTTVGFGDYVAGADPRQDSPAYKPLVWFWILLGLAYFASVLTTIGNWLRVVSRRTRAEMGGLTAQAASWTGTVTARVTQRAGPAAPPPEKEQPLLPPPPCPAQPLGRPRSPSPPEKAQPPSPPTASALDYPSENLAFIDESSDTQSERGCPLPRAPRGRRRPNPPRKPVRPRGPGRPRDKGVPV
# Text: as §1, §2, §3, §4
# [4] = biological target: T3, WT-CG* tandem K2P2.1 (TREK-1) (Mus musculus, UniProt P97438, S146C); assay: TEVC in Xenopus oocytes, tandem channels; settings: 20 μM; for Fold-activation (I activator/I control): sequential application, Xenopus oocytes
# T3 construct: expressed in transfected cells; host or cells: Xenopus laevis oocytes injected with mRNA
# T3 sequence (P97438 1-411 isoform P97438-2): T1 sequence (P97438 1-411 isoform P97438-2 S131C) with C131S
# T3 sequence (P97438 1-411 isoform P97438-2 S131C): T1 sequence (P97438 1-411 isoform P97438-2 S131C)
# Text: as §1, §2, §3, §4
# [5] = biological target: T4, CG*-WT tandem K2P2.1 (TREK-1) (Mus musculus, UniProt P97438, S146C); assay: TEVC in Xenopus oocytes, tandem channels; settings: 20 μM; for Fold-activation (I activator/I control): sequential application, Xenopus oocytes
# T4 construct: expressed in transfected cells; host or cells: Xenopus laevis oocytes injected with mRNA
# T4 sequence (P97438 1-411 isoform P97438-2 S131C): T1 sequence (P97438 1-411 isoform P97438-2 S131C)
# T4 sequence (P97438 1-411 isoform P97438-2): T1 sequence (P97438 1-411 isoform P97438-2 S131C) with C131S
# Text: as §1, §2, §3, §4
# [6] = biological target: T5, WT-WT tandem K2P2.1 (TREK-1) (Mus musculus, UniProt P97438); assay: TEVC in Xenopus oocytes, tandem channels; settings: 20 μM, sequential application
# T5 construct: expressed in transfected cells; host or cells: Xenopus laevis oocytes injected with mRNA
# T5 sequence (P97438 1-411 isoform P97438-2) 1: T1 sequence (P97438 1-411 isoform P97438-2 S131C) with C131S
# T5 sequence (P97438 1-411 isoform P97438-2) 2: T1 sequence (P97438 1-411 isoform P97438-2 S131C) with C131S
# Text: as §1, §2, §3, §4
Compound,Reversibility of activation on washout [1],Emax (IML335/Icontrol) ([1]; TEVC at 0 mV),"EC50 ([1]; TEVC at 0 mV, normalized to initial currents)",Fold-activation (I activator/I control) ([2]; after 2 min),Fold-activation (I activator/I control) [3],Fold-activation (I activator/I control) [4],Fold-activation (I activator/I control) [5],Fold-activation (I activator/I control) [6],Reversibility of activation ([2]; Xenopus oocytes),Fold-activation (I activator/I control) ([2]; longer application (6 min) to approach maximal activation),Fold-activation relative to activation of the CG*-CG* homodimer [4],Fold-activation relative to activation of the CG*-CG* homodimer [5]
"CS(=O)(=O)Nc1ccc(C(=O)NCc2ccc(Cl)cc2Cl)cc1 [ML335, reference compound]",immediate reversal,9.6±0.8 fold activation,18 ± 4 µM,1.9±0.1 fold,3.7±0.3 fold,5.6 ± 0.4 fold,5.0±0.5 fold,6.8 ± 0.5 fold,,,,
O=C(NCc1ccc(Cl)cc1Cl)c1ccc(N2C(=O)C=CC2=O)cc1 [CAT335],irreversible,,,4.2±0.6 fold,7.4 ± 0.6 fold,11.5 ± 1.1 fold,8.9 ± 1.1 fold,1.37 ± 0.07 fold,irreversibly activated,11±1 fold,60-80%,60-80%
